Assay results from patent US5633231A, “Valine-containing pseudopeptides with antiviral activity” (Bayer Aktiengesellschaft, priority 1993, dated 1997).

How the values were obtained:
HCMV (Davis) = test: Anti-HCMV (Davis) activity: inhibition of the cytopathogenic effect in HELF cell cultures, 96-well screening test; type: cell-based, human cytomegalovirus
Procedure: (§1) The anti-HCMV effect was determined in a screening test system in 96-well microtitre plates with the aid of human embryonic lung fibroblast (HELF) cell cultures. The influence of the substances on the spread of the cytopathogenic effect was compared with that of the reference substance ganciclovir ([…]® sodium), a clinically approved anti-HCMV chemotherapeutic agent. The substances, dissolved (50 mM) in DMSO (dimethyl sulphoxide), are investigated on microtitre plates (96-well) at final concentrations of 1000-0.00048 μM (micromolar) in double determinations (4 substances/plate). In this test, both the toxic and cytostatic effects of the substances are recorded. […] After staining with neutral red and fixing with formalin/methanol, the plates are evaluated using a projection microscope (plaque viewer).

[1] = tested on: human embryonic lung fibroblast (HELF) cell cultures; test: Anti-cellular (toxic and cytostatic) effect on HELF cells in the same screening test; type: cell-based; details: 6 days at 37° C.
Procedure: as §1

SMILES: Nc1nc(O)c2ncn(COC(CO)CO)c2n1 [Cymevene^R Na, ganciclovir]
- SI (selectivity index) (HCMV (Davis); HELF versus HCMV, definition given only as a drawing): 32-64
- IC50 (HCMV (Davis); Human betaherpesvirus 5, 144 h, read-out: IC50 (μM) (HCMV) = concentration which elicits 50% inhibition of the CPE, HCMV (Davis)-infected HELF cells, 6 days, neutral red staining): 2 to 4 µM
- CIC50 (μM) (HELF) = highest concentration at which no obvious anticellular effect is evident [1]: 125 µM
